In the supplement of paper PMC10307832 one finds relative viability data, which are given here for one cell line.

What all share (assay): relative viability (nuclei count vs DMSO), 5 days (fraction); higher = more cells survive
Compound in the experiment “GW-2580 + Lapatinib”: COC1=CC=C(C=C1)COC2=C(C=C(C=C2)CC3=CN=C(N=C3N)N)OC [GW-2580] + CS(=O)(=O)CCNCc1ccc(-c2ccc3ncnc(Nc4ccc(OCc5cccc(F)c5)c(Cl)c4)c3c2)o1 [Lapatinib] (partner 2 µM)
The procedure, abridged:
(§1)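 Relative viability equals treated-well nuclei counts divided by vehicle-well nuclei counts. Counts came from 4× images of lung cancer cell lines grown in 1536-well plates for 5 days after pin-tool dosing on the day after seeding. Dosing used one drug alone or a fixed anchor-drug dose plus five library-drug doses (not always all listed) in √10 steps, and values are medians of duplicate plates.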

Compound in the experiment “GW-2580 + Pemetrexed”: COC1=CC=C(C=C1)COC2=C(C=C(C=C2)CC3=CN=C(N=C3N)N)OC [GW-2580] + Nc1nc2[nH]cc(CCc3ccc(C(=O)N[C@@H](CCC(=O)O)C(=O)O)cc3)c2c(=O)[nH]1 [Pemetrexed] (partner 0.2 µM)
The procedure, abridged:
as §1

Compound in the experiment “Fedratinib + Trametinib”: Cc1cnc(Nc2ccc(OCCN3CCCC3)cc2)nc1Nc1cccc(S(=O)(=O)NC(C)(C)C)c1 [Fedratinib] + CC(=O)Nc1cccc(-n2c(=O)n(C3CC3)c(=O)c3c(Nc4ccc(I)cc4F)n(C)c(=O)c(C)c32)c1 [Trametinib] (partner 0.02 µM)
The procedure, abridged: as §1

Compound in the experiment “Fedratinib + Navitoclax”: Cc1cnc(Nc2ccc(OCCN3CCCC3)cc2)nc1Nc1cccc(S(=O)(=O)NC(C)(C)C)c1 [Fedratinib] + CC1(C)CCC(c2ccc(Cl)cc2)=C(CN2CCN(c3ccc(C(=O)NS(=O)(=O)c4ccc(N[C@H](CCN5CCOCC5)CSc5ccccc5)c(S(=O)(=O)C(F)(F)F)c4)cc3)CC2)C1 [Navitoclax] (partner 0.5 µM)
In outline: as §1

Compound in the experiment “Fedratinib + Pictilisib”: Cc1cnc(Nc2ccc(OCCN3CCCC3)cc2)nc1Nc1cccc(S(=O)(=O)NC(C)(C)C)c1 [Fedratinib] + CS(=O)(=O)N1CCN(Cc2cc3nc(-c4cccc5[nH]ncc45)nc(N4CCOCC4)c3s2)CC1 [Pictilisib] (partner 1 µM)
The procedure, abridged:
as §1

Compound in the experiment “Fedratinib + Pemetrexed”: Cc1cnc(Nc2ccc(OCCN3CCCC3)cc2)nc1Nc1cccc(S(=O)(=O)NC(C)(C)C)c1 [Fedratinib] + Nc1nc2[nH]cc(CCc3ccc(C(=O)N[C@@H](CCC(=O)O)C(=O)O)cc3)c2c(=O)[nH]1 [Pemetrexed] (partner 0.2 µM)
In outline: as §1

For the cell line UMC-11, the relative viability with GW-2580 + Lapatinib (first compound 0.08 µM) worked out at 1.26; with GW-2580 + Lapatinib (first compound 0.8 µM) it was 1.11; with GW-2580 + Lapatinib (first compound 2.53 µM), 0.88; with GW-2580 + Lapatinib (first compound 8 µM), 1.15; with GW-2580 + Pemetrexed (first compound 0.08 µM), 0.948; in the experiment with GW-2580 + Pemetrexed (first compound 0.8 µM), 0.939. In addition, the relative viability with GW-2580 + Pemetrexed (first compound 2.53 µM) was found to be 0.754; with GW-2580 + Pemetrexed (first compound 8 µM) it was 0.718; in the experiment with Fedratinib + Trametinib (first compound 0.1 µM), 0.625; with Fedratinib + Trametinib (first compound 0.3162 µM), 0.476; with Fedratinib + Trametinib (first compound 1 µM), 0.52; in the experiment with Fedratinib + Navitoclax (first compound 0.1 µM) it was 0.31. In addition, the relative viability with Fedratinib + Navitoclax (first compound 0.3162 µM) was 0.275; with Fedratinib + Navitoclax (first compound 1 µM), 0.228; in the experiment with Fedratinib + Pictilisib (first compound 0.1 µM), 0.672; with Fedratinib + Pictilisib (first compound 0.3162 µM), 0.82; in the experiment with Fedratinib + Pictilisib (first compound 1 µM), 0.397; in the experiment with Fedratinib + Pemetrexed (first compound 0.1 µM), 0.756. For the same cell line, the relative viability is 0.66 with Fedratinib + Pemetrexed (first compound 0.3162 µM) and 0.665 with Fedratinib + Pemetrexed (first compound 1 µM).
